Measurements as given in patent publication US20240287138A1, “CYCLIC PEPTIDES FOR INHIBITING TNF RECEPTOR 1 ACTIVITY” (Merck Sharp & Dohme LLC, priority 2023, published 2024).
Numbered stars: 1 amine (or outer) side, 2 acyl side, 3 side chain; on linkers, the order of the positions; unused ones are H or OH. Bridge positions count the residues as written; N and C are the ends. Square brackets hold non-standard residues; d marks the D form. Peptide text beside a SMILES is read from it. * marks the point of attachment. Trp(βS-Me,7-OMe) = COc1cccc2c([C@H](C)[C@H](N)C(=O)O)c[nH]c12; Phe(4-SO2NH2) = N[C@@H](Cc1ccc(S(N)(=O)=O)cc1)C(=O)O; Phe(2-F,4-COOH) = N[C@@H](Cc1ccc(C(=O)O)cc1F)C(=O)O; dPro(trans-4-NMe2) = CN(C)[C@@H]1CN[C@@H](C(=O)O)C1; Trp(7-CN) = N#Cc1cccc2c(C[C@H](N)C(=O)O)c[nH]c12; Trp(7-Cl) = N[C@@H](Cc1c[nH]c2c(Cl)cccc12)C(=O)O; Phe(3-CONH2) = NC(=O)c1cccc(C[C@H](N)C(=O)O)c1; Phe(4-CONH2) = NC(=O)c1ccc(C[C@H](N)C(=O)O)cc1; Phe(4-COOH) = N[C@@H](Cc1ccc(C(=O)O)cc1)C(=O)O; 4Pal(3S-Me) = C[C@@H](c1ccncc1)[C@H](N)C(=O)O; Trp(7-aza) = N[C@@H](Cc1c[nH]c2ncccc12)C(=O)O; X3 = C[C@H](c1ccncc1)[C@H](N[*:1])C(=O)[*:2]; dPro(trans-4-F) = O=C(O)[C@H]1C[C@H](F)CN1; dPro(4S-NH2) = N[C@@H]1CN[C@@H](C(=O)O)C1; Pip(5R-OH) = O=C(O)[C@@H]1CC[C@@H](O)CN1; X1 = O=C([C@@H]1CC[C@H](N[*:1])C1)[*:2]; Gly(Nα-CH2CH2CONH2) = NC(=O)CCNCC(=O)O; X31 = O=C(CN(CCc1nnco1)[*:1])[*:2]; Pip(4-aza) = O=C(O)[C@@H]1CNCCN1; 4Pal = N[C@@H](Cc1ccncc1)C(=O)O; NMeE = CN[C@@H](CCC(=O)O)C(=O)O; dHyp = O=C(O)[C@H]1C[C@H](O)CN1; Cit = NC(=O)NCCC[C@H](N)C(=O)O; aThr = C[C@H](O)[C@H](N)C(=O)O; Ahp(2) = CCCCC[C@H](N)C(=O)O; αMeS = C[C@](N)(CO)C(=O)O; Carboxymethyl = O=C(O)C*; Nle = CCCC[C@H](N)C(=O)O; Sar = CNCC(=O)O

target: T1, TNFα-induced NF-κB signal transduction pathway (TNFR1 signaling) in THP-1 cells (Homo sapiens, UniProt P19438); assay: THP-1 Lucia NF-κB reporter cell assay, inhibition of TNFα-induced NF-κB signaling; assay type: cell-based; settings: THP-1 NF-κB Lucia reporter cells, 10 ng/mL TNFα, 16-18 h, secreted luciferase; read-out: THP-1 IC50
T1 sequence (P19438 30-455): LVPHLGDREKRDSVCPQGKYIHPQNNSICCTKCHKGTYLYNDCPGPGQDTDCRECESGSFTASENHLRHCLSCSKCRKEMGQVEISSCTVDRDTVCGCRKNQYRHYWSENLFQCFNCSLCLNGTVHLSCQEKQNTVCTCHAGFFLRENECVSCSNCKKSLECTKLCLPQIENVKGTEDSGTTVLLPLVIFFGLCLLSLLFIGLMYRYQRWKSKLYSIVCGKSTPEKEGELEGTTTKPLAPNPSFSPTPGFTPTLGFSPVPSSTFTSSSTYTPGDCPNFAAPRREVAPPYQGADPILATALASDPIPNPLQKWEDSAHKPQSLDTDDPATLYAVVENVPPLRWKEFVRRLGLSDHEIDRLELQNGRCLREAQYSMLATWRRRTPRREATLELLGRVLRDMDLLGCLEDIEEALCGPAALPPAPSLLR
Procedure, shortened: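 THP-1 Lucia NF-κB cells, 20k/well, no selection antibiotics; peptide pre-inc 1 h 37 °C; + recombinant human TNFα 10 ng/mL final; o.n.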

| SMILES | IC50 |
| --- | --- |
| CCCCC[C@@H]1NC(=O)[C@@H]2CC[C@@H](C2)NC(=O)[C@H]([C@@H](C)c2c[nH]c3c(OC)cccc23)NC(=O)CN(C)C(=O)[C@H](Cc2ccc(C(N)=O)cc2)NC(=O)[C@H](Cc2ccc(C(N)=O)cc2)NC(=O)[C@](C)(CO)NC(=O)[C@H](Cc2c[nH]c3c(C#N)cccc23)NC(=O)[C@H](Cc2ccc(C(=O)O)cc2)NC(=O)[C@H](CC(N)=O)NC(=O)[C@H]2C[C@H](O)CN2C(=O)[C@H](Cc2c[nH]c3ccccc23)NC(=O)[C@H](CCCNC(N)=O)NC(=O)[C@H]([C@@H](C)c2ccncc2)NC1=O [SEQ ID NO. 110] (cyclo([Ahp(2)][4Pal(3S-Me)][Cit]W[dHyp]N[Phe(4-COOH)][Trp(7-CN)][αMeS][Phe(4-CONH2)][Phe(4-CONH2)][Sar][Trp(βS-Me,7-OMe)][X1])) | 1.2 nM |
| CCCC[C@@H]1NC(=O)[C@@H]2CC[C@@H](C2)NC(=O)[C@H]([C@@H](C)c2c[nH]c3c(OC)cccc23)NC(=O)CN(C)C(=O)[C@H](Cc2ccc(C(N)=O)cc2)NC(=O)[C@H](Cc2ccc(C(N)=O)cc2)NC(=O)[C@](C)(CO)NC(=O)[C@H](Cc2c[nH]c3c(C#N)cccc23)NC(=O)[C@H](Cc2ccc(C(=O)O)cc2)NC(=O)[C@H](CC(N)=O)NC(=O)[C@H]2C[C@H](F)CN2C(=O)[C@H](Cc2c[nH]c3ccccc23)NC(=O)[C@@H]2CC[C@@H](O)CN2C(=O)[C@H](Cc2ccncc2)NC1=O [SEQ ID NO. 114] (cyclo([4Pal][Pip(5R-OH)]W[dPro(trans-4-F)]N[Phe(4-COOH)][Trp(7-CN)][αMeS][Phe(4-CONH2)][Phe(4-CONH2)][Sar][Trp(βS-Me,7-OMe)][X1][Nle])) | 0.9 nM |
| CCCC[C@@H]1NC(=O)[C@@H]2CC[C@@H](C2)NC(=O)[C@H]([C@@H](C)c2c[nH]c3c(OC)cccc23)NC(=O)CN(C)C(=O)[C@H](Cc2ccc(C(=O)O)cc2)NC(=O)[C@H](Cc2ccc(C(N)=O)cc2)NC(=O)[C@](C)(CO)NC(=O)[C@H](Cc2c[nH]c3c(C#N)cccc23)NC(=O)[C@H](Cc2ccncc2)NC(=O)[C@H](CC(N)=O)NC(=O)CN(CCc2nnco2)C(=O)[C@H](Cc2c[nH]c3ncccc23)NC(=O)[C@@H]2CC[C@@H](O)CN2C(=O)[C@H](Cc2ccncc2)NC1=O [SEQ ID NO. 121] (cyclo([4Pal][Trp(7-CN)][αMeS][Phe(4-CONH2)][Phe(4-COOH)][Sar][Trp(βS-Me,7-OMe)][X1][Nle][4Pal][Pip(5R-OH)][Trp(7-aza)][X31]N)) | 0.9 nM |
| CCCC[C@@H]1NC(=O)[C@@H]2CC[C@@H](C2)NC(=O)[C@H]([C@@H](C)c2c[nH]c3c(OC)cccc23)NC(=O)CN(C)C(=O)[C@H](Cc2ccc(C(N)=O)cc2)NC(=O)[C@H](Cc2ccc(C(N)=O)cc2)NC(=O)[C@](C)(CO)NC(=O)[C@H](Cc2c[nH]c3c(C#N)cccc23)NC(=O)[C@H](Cc2ccc(C(=O)O)cc2)NC(=O)[C@H]([C@H](C)O)NC(=O)[C@H]2C[C@H](O)CN2C(=O)[C@H](Cc2c[nH]c3ncccc23)NC(=O)[C@@H]2CC[C@@H](O)CN2C(=O)[C@H](Cc2ccncc2)NC1=O [SEQ ID NO. 122] (cyclo([4Pal][Pip(5R-OH)][Trp(7-aza)][dHyp][aThr][Phe(4-COOH)][Trp(7-CN)][αMeS][Phe(4-CONH2)][Phe(4-CONH2)][Sar][Trp(βS-Me,7-OMe)][X1][Nle])) | 0.9 nM |
| CCCCC[C@@H]1NC(=O)[C@@H]2CC[C@@H](C2)NC(=O)[C@H]([C@@H](C)c2c[nH]c3c(OC)cccc23)NC(=O)CN(C)C(=O)[C@H](Cc2cccc(C(N)=O)c2)NC(=O)[C@H](Cc2ccc(C(N)=O)cc2)NC(=O)[C@](C)(CO)NC(=O)[C@H](Cc2c[nH]c3c(C#N)cccc23)NC(=O)[C@H](Cc2ccc(C(=O)O)cc2)NC(=O)[C@H](CC(N)=O)NC(=O)[C@H]2C[C@H](N(C)C)CN2C(=O)[C@H](Cc2c[nH]c3ccccc23)NC(=O)[C@@H]2CC[C@@H](O)CN2C(=O)[C@H](Cc2ccncc2)NC1=O [SEQ ID NO. 128] (cyclo([4Pal][Pip(5R-OH)]W[dPro(trans-4-NMe2)]N[Phe(4-COOH)][Trp(7-CN)][αMeS][Phe(4-CONH2)][Phe(3-CONH2)][Sar][Trp(βS-Me,7-OMe)][X1][Ahp(2)])) | 0.8 nM |
| CCCC[C@@H]1NC(=O)[C@@H]2CC[C@@H](C2)NC(=O)[C@H]([C@@H](C)c2c[nH]c3c(OC)cccc23)NC(=O)CN(C)C(=O)[C@H](Cc2ccc(C(=O)O)cc2)NC(=O)[C@H](Cc2ccc(C(N)=O)cc2)NC(=O)[C@](C)(CO)NC(=O)[C@H](Cc2c[nH]c3c(C#N)cccc23)NC(=O)[C@H](Cc2ccc(C(=O)O)cc2)NC(=O)[C@H](CC(N)=O)NC(=O)CN(CCC(N)=O)C(=O)[C@H](Cc2c[nH]c3ccccc23)NC(=O)[C@@H]2CC[C@@H](O)CN2C(=O)[C@H](Cc2ccncc2)NC1=O [SEQ ID NO. 130] (cyclo([4Pal][Pip(5R-OH)]W[Gly(Nα-CH2CH2CONH2)]N[Phe(4-COOH)][Trp(7-CN)][αMeS][Phe(4-CONH2)][Phe(4-COOH)][Sar][Trp(βS-Me,7-OMe)][X1][Nle])) | 0.7 nM |
| CCCC[C@@H]1NC(=O)[C@@H]2CC[C@@H](C2)NC(=O)[C@H]([C@@H](C)c2c[nH]c3c(OC)cccc23)NC(=O)CN(C)C(=O)[C@H](Cc2ccc(C(=O)O)cc2F)NC(=O)[C@H](Cc2ccc(S(N)(=O)=O)cc2)NC(=O)[C@](C)(CO)NC(=O)[C@H](Cc2c[nH]c3c(C#N)cccc23)NC(=O)[C@H](Cc2ccc(C(=O)O)cc2F)NC(=O)[C@H](CC(N)=O)NC(=O)[C@H]2C[C@H](OCC(=O)O)CN2C(=O)[C@H](Cc2c[nH]c3ncccc23)NC(=O)[C@@H]2CC[C@@H](O)CN2C(=O)[C@H](Cc2ccncc2)NC1=O [SEQ ID NO. 134] (cyclo([4Pal][Pip(5R-OH)][Trp(7-aza)][dHyp](Carboxymethyl)N[Phe(2-F,4-COOH)][Trp(7-CN)][αMeS][Phe(4-SO2NH2)][Phe(2-F,4-COOH)][Sar][Trp(βS-Me,7-OMe)][X1][Nle])) | 0.4 nM |
| CCCCC[C@@H]1NC(=O)[C@@H]2CC[C@@H](C2)NC(=O)[C@H]([C@@H](C)c2c[nH]c3c(OC)cccc23)NC(=O)CN(C)C(=O)[C@H](Cc2ccc(C(N)=O)cc2)NC(=O)[C@H](Cc2ccc(C(N)=O)cc2)NC(=O)[C@](C)(CO)NC(=O)[C@H](Cc2c[nH]c3c(C#N)cccc23)NC(=O)[C@H](Cc2ccc(C(=O)O)cc2)NC(=O)[C@H](CC(N)=O)NC(=O)[C@H]2C[C@H](OCC(=O)O)CN2C(=O)[C@H](Cc2c[nH]c3ccccc23)NC(=O)[C@@H]2CNCCN2C(=O)[C@H](Cc2ccncc2)NC1=O [SEQ ID NO. 140] (cyclo([4Pal][Pip(4-aza)]W[dHyp](Carboxymethyl)N[Phe(4-COOH)][Trp(7-CN)][αMeS][Phe(4-CONH2)][Phe(4-CONH2)][Sar][Trp(βS-Me,7-OMe)][X1][Ahp(2)])) | 0.5 nM |
| CCCC[C@@H]1NC(=O)[C@@H]2CC[C@@H](C2)NC(=O)[C@H]([C@@H](C)c2c[nH]c3c(OC)cccc23)NC(=O)CN(C)C(=O)[C@H](Cc2ccc(O)cc2)NC(=O)[C@H](Cc2ccc(C(=O)O)cc2)NC(=O)[C@](C)(CO)NC(=O)[C@H](Cc2c[nH]c3c(Cl)cccc23)NC(=O)[C@H](Cc2ccncc2)NC(=O)[C@H](CC(N)=O)NC(=O)CN(C)C(=O)[C@H](Cc2c[nH]c3ccccc23)NC(=O)[C@@H]2CNCCN2C(=O)[C@H](Cc2ccncc2)NC1=O [SEQ ID NO. 141] (cyclo([4Pal][Trp(7-Cl)][αMeS][Phe(4-COOH)]Y[Sar][Trp(βS-Me,7-OMe)][X1][Nle][4Pal][Pip(4-aza)]W[Sar]N)) | 1.2 nM |
| CCCC[C@@H]1NC(=O)CSC[C@@H](C(N)=O)NC(=O)[C@H]([C@@H](C)c2c[nH]c3c(OC)cccc23)NC(=O)CN(C)C(=O)[C@H](Cc2ccc(O)cc2)NC(=O)[C@H](Cc2ccc(C(=O)O)cc2)NC(=O)[C@](C)(CO)NC(=O)[C@H](Cc2c[nH]c3c(Cl)cccc23)NC(=O)[C@H](Cc2ccncc2)NC(=O)[C@H](CC(N)=O)NC(=O)[C@H](CCC(=O)O)N(C)C(=O)[C@H](Cc2c[nH]c3ncccc23)NC(=O)[C@H](CO)NC(=O)[C@H]([C@H](C)c2ccncc2)NC1=O [SEQ ID NO. 143] ({CH2CO}-[Nle][X3]S[Trp(7-aza)][NMeE]N[4Pal][Trp(7-Cl)][αMeS][Phe(4-COOH)]Y[Sar][Trp(βS-Me,7-OMe)]C-NH2; thioether N-14) | 2.2 nM |
| CCCC[C@@H]1NC(=O)[C@@H]2CC[C@@H](C2)NC(=O)[C@H]([C@@H](C)c2c[nH]c3c(OC)cccc23)NC(=O)CN(C)C(=O)[C@H](Cc2ccc(O)cc2)NC(=O)[C@H](Cc2ccc(C(N)=O)cc2)NC(=O)[C@](C)(CO)NC(=O)[C@H](Cc2c[nH]c3c(Cl)cccc23)NC(=O)[C@H](Cc2ccncc2)NC(=O)[C@H](CC(N)=O)NC(=O)[C@H]2C[C@H](N)CN2C(=O)[C@H](Cc2c[nH]c3ccccc23)NC(=O)[C@@H]2CC[C@@H](O)CN2C(=O)[C@H](Cc2ccncc2)NC1=O [SEQ ID NO. 144] (cyclo([4Pal][Trp(7-Cl)][αMeS][Phe(4-CONH2)]Y[Sar][Trp(βS-Me,7-OMe)][X1][Nle][4Pal][Pip(5R-OH)]W[dPro(4S-NH2)]N)) | 0.6 nM |
